One series has as its system A549 cells. The series can be described thus: Phospholipidosis imaging (NBD-PE fluorescence). Conditions: 24 h, sangivamycin up to 5 μM, melperone 10 μM, amiodarone positive control.
The test system of series [1] is SARS-CoV-2 WA1. The series can be described thus: microbe, parasite or virus in culture. The format is cell-based. Conditions: for IC50: read-out: IC50.
Series [2] has as its system COVID-19 higher risk individuals. Set-up: method as in earlier work. To be noted: phase III clinical trial with 1433 patients, FDA advisory committee analysis; cited from earlier work.
The test system of series [3] is SARS-CoV-2 WA1. The series can be described thus: microbe, parasite or virus in culture. The format is cell-based. Conditions: Severe acute respiratory syndrome coronavirus 2, Caco-2, 96 h.
The subject of series [4] is SARS-CoV-2 B.1.429 (Epsilon). The experiment in a line: microbe, parasite or virus in culture. The format is cell-based. To be noted: Severe acute respiratory syndrome coronavirus 2, Calu-3, 24 h.
Series [5] deals with SARS-CoV-2 B.1.617.2 (Delta). The experiment in a line: microbe, parasite or virus in culture. The format is cell-based. Conditions: Severe acute respiratory syndrome coronavirus 2, VeroE6/TMPRSS2, 18 h.
The subject of series [6] is SARS-CoV-2 B.1.617.2 (Delta). The experiment in a line: microbe, parasite or virus in culture. The format is cell-based. To be noted: Severe acute respiratory syndrome coronavirus 2, Calu-3, 24 h.
Series [7] has as its system SARS-CoV-2 P.1 (Gamma). The series can be described thus: microbe, parasite or virus in culture. The format is cell-based. Conditions: Severe acute respiratory syndrome coronavirus 2, Vero C1008, 24 h.
Series [8] deals with SARS-CoV-2. The experiment in a line: Combinatorial sangivamycin/remdesivir efficacy testing, Caco-2 cells. The format is cell-based. To be noted: Severe acute respiratory syndrome coronavirus 2, Caco-2; read-out: IC50 (nM), S:R by [Remdesivir].
The conditions of series [9]: mice; cited from earlier work.
Series [10] deals with SARS-CoV-2. The experiment in a line: Combinatorial sangivamycin/remdesivir efficacy testing, Vero E6 cells. The format is cell-based. To be noted: Severe acute respiratory syndrome coronavirus 2, Vero C1008; read-out: IC50 (nM), S:R by [Remdesivir].
The test system of series [11] is SARS-CoV-2 B.1.427 (Epsilon). The series can be described thus: microbe, parasite or virus in culture. The format is cell-based. Conditions: Severe acute respiratory syndrome coronavirus 2, Vero C1008, 24 h.
The conditions of series [12]: laboratory mouse liver, lung, and kidney microsomes; cited from earlier work.
Series [13] concerns SARS-CoV-2 B.1.429 (Epsilon). The series can be described thus: microbe, parasite or virus in culture. The format is cell-based. Conditions: Severe acute respiratory syndrome coronavirus 2, Vero C1008, 48 h.
The subject of series [14] is SARS-CoV-2 B.1.1.7 (Alpha). The series can be described thus: microbe, parasite or virus in culture. The format is cell-based. To be noted: Severe acute respiratory syndrome coronavirus 2, Vero C1008, 24 h.
The subject of series [15] is SARS-CoV-2 P.1 (Gamma). The experiment in a line: microbe, parasite or virus in culture. The format is cell-based. Conditions: Severe acute respiratory syndrome coronavirus 2, Calu-3, 24 h.
Series [16] concerns SARS-CoV-2 B.1.427 (Epsilon). The experiment in a line: microbe, parasite or virus in culture. The format is cell-based. To be noted: Severe acute respiratory syndrome coronavirus 2, Calu-3, 24 h.
Series [17] has as its system SARS-CoV-2 P.2 (Zeta). The experiment in a line: microbe, parasite or virus in culture. The format is cell-based. To be noted: Severe acute respiratory syndrome coronavirus 2, Vero C1008, 24 h.
Series [18] deals with SARS-CoV-2 P.2 (Zeta). The series can be described thus: microbe, parasite or virus in culture. The format is cell-based. To be noted: Severe acute respiratory syndrome coronavirus 2, Calu-3, 24 h.
The test system of series [19] is SARS-CoV-2 B.1.351 (Beta). The series can be described thus: microbe, parasite or virus in culture. The format is cell-based. To be noted: Severe acute respiratory syndrome coronavirus 2, Calu-3, 48 h.
For series [20], the system named is SARS-CoV-2 WA1. The experiment in a line: microbe, parasite or virus in culture. The format is cell-based. Conditions: Severe acute respiratory syndrome coronavirus 2, Calu-3, 72 h.
The subject of series [21] is SARS-CoV-2 B.1.351 (Beta). The experiment in a line: microbe, parasite or virus in culture. The format is cell-based. Conditions: Severe acute respiratory syndrome coronavirus 2, Vero C1008, 18 h.
The subject of series [22] is SARS-CoV-2 B.1.1.7 (Alpha). The experiment in a line: microbe, parasite or virus in culture. The format is cell-based. To be noted: Severe acute respiratory syndrome coronavirus 2, Calu-3, 24 h.
Series [23] relates to SARS-CoV-2. The series can be described thus: Combinatorial sangivamycin/remdesivir efficacy testing, Calu-3 cells. The format is cell-based. Conditions: Severe acute respiratory syndrome coronavirus 2, Calu-3; read-out: IC50 (nM), S:R by [Remdesivir].
Series [24] can be described thus: 24-hour plasma pharmacokinetics in CD-1 laboratory mice. The format is in vivo, mouse. To be noted: CD-1 mice, sangivamycin i.p. 60 mg/kg; not in control mice. Here is the method:
We next evaluated the 24-hour pharmacokinetics (PK) of sangivamycin in CD-1 laboratory mouse plasma. Sangivamycin’s plasma concentrations increased following i.p. injection of 60 mg/kg to a peak at 2 hours, then decreased over 6 or 8 hours, and remained virtually unchanged up to 24 hours after dosing. […] Graphing plasma concentration versus time produced an area under the curve to the last time point with values of 632 ± 66.6 h•ng/mL for males and 833 ± 53.9 h•ng/mL for females. […] Our data corroborate historical PK studies in mice with ^3H-labeled sangivamycin performed at the NCI in 1974 ([20]). In these studies, free nucleoside and mono-, di-, and triphosphate forms of sangivamycin were detected in blood, urine, and multiple tissues (e.g., heart, liver, brain, spleen, and kidneys) following i.p. injection of 8 mg/kg. The studies established that sangivamycin was phosphorylated after transportation into cells. In liver, heart, and brain, the predominant form of sangivamycin was sangivamycin 5′-monophosphate (SMP). […] Therefore, we determined the level of SMP in blood in our PK study using a published liquid chromatography–tandem mass spectrometry (LC-MS/MS) method with a lower limit of quantification of 1 ng/mL ([33]). Using this method, we detected SMP in the plasma of dosed mice but not control mice (Supplemental Figure 9B). The apparent levels of SMP increased in blood during the 24 hours of this study. There also was possible presence of a diphosphate metabolite of sangivamycin, but it was detected only in the plasma samples taken 24 hours after dosing.

Setting [25] is: Severe acute respiratory syndrome coronavirus 2, Vero C1008, 48 h.

Like-named read-outs stand apart in the source and are kept apart here.

Regarding `CCCCc1oc2ccccc2c1C(=O)c1cc(I)c(OCCN(CC)CC)c(I)c1` [Amiodarone, reference compound], the “NBD-PE fluorescence (phospholipidosis)” value in the series with A549 cells is on record as “induced NBD-PE fluorescence”.

As usually defined, the IC50 is the concentration needed to halve the response being measured. Consider `N#C[C@@]1(c2ccc3c(N)ncnn23)O[C@H](CO)[C@@H](O)[C@H]1O` [GS-441524, reference compound], for which the “IC50 fold higher than the IC50 of sangivamycin” value in the series with SARS-CoV-2 WA1 [1] came to 27 fold. The IC50 in the series on SARS-CoV-2 WA1 [1] (Severe acute respiratory syndrome coronavirus 2, Vero C1008) came to 1420 ± 20 nM.

As for `CC(C)C(=O)OC[C@H]1O[C@@H](n2ccc(NO)nc2=O)[C@H](O)[C@@H]1O` [Molnupiravir], the “reduction of risk for hospitalization and death” value in [2] is given as 30%.

A word on the IC90: it is the point of the concentration-response curve where the effect stands at 90%. For `CCC(CC)COC(=O)[C@H](C)N[P@](=O)(OC[C@H]1O[C@@](C#N)(c2ccc3c(N)ncnn23)[C@H](O)[C@@H]1O)Oc1ccccc1` [Remdesivir, remdesivir, reference compound], the IC50 in the series with SARS-CoV-2 WA1 [3] came to 3 nM; in [4] it was 2800 nM; in series [5], 5460 nM; in series [6], 2910 nM; with SARS-CoV-2 P.1 (Gamma) [7], 702 nM; with SARS-CoV-2 WA1 [1] (setting [25]), 2270 nM. For the same compound, the IC50 was 17.6 nM with SARS-CoV-2 [8]; 2320 nM with SARS-CoV-2 [10]; 1270 nM in series [11]; 1770 nM in series [13]; 1420 nM in [14]; 1700 nM in the series on SARS-CoV-2 P.1 (Gamma) [15]. Further, the 50% inhibitory concentration (IC50) came out at 1500 nM in series [16]; 1560 nM in the series with SARS-CoV-2 P.2 (Zeta) [17]; 791 nM in the series with SARS-CoV-2 P.2 (Zeta) [18]; 951 nM in [19]; 4490 nM in the series with SARS-CoV-2 WA1 [20]; 2370 nM in series [21]. For the same compound, the figures for the IC50 (in series [22]; in the series on SARS-CoV-2 [23]) were 3180 nM and 4470 nM, respectively. The IC90 in the series on SARS-CoV-2 WA1 [3] was 13 nM; in series [4] it was > 10000 nM; in series [5], > 10000 nM; in [6], > 10000 nM; with SARS-CoV-2 P.1 (Gamma) [7], 3680 nM; with SARS-CoV-2 WA1 [1] (setting [25]), 3530 nM. Besides, the IC90 was 3280 nM in [11]; 2470 nM in series [13]; 3680 nM in series [14]; 6270 nM in the series with SARS-CoV-2 P.1 (Gamma) [15]; 6090 nM in [16]; 4910 nM in the series with SARS-CoV-2 P.2 (Zeta) [17]. The IC90 in the series with SARS-CoV-2 P.2 (Zeta) [18] was 4800 nM; in series [19] it was 2290 nM; in the series with SARS-CoV-2 WA1 [20], 8190 nM; in series [21], 4030 nM; in series [22], > 10000 nM. Moreover, the “half-lives (free nucleoside and monophosphate forms)” value in [9] was “about 5 hours”. For the same compound, in series [12], the “time within which remdesivir and its monophosphate are lost” value was ≤ 10 min.

As for `NC(=O)c1cn(C2OC(COP(=O)(O)O)C(O)C2O)c2ncnc(N)c12` (centres unmarked) [SMP, sangivamycin 5′-monophosphate], the “presence in plasma of sangivamycin-dosed mice (LC-MS/MS)” value in [24] was “detected”.

(Values after article PMC8765048 (JCI Insight, 2022).)
